Results from patent publication US20150352108A1, “AMINO-PYRIMIDINE COMPOUNDS AS INHIBITORS OF TBK1 AND/OR IKK EPSILON” (Alzheimer's Institute of America, priority 2009, published 2015).

Columns and labels:
[1] = system: IKKε-mediated phosphorylation of IRF3; test: In-situ phosphorylation of IRF3 (pIRF3 Ser396 ELISA) in HEK293T cells cotransfected with IRF3 and IKKε; type: cell-based; conditions: Homo sapiens, HEK-293T; HEK293T cells, 20 hours, text bins; read-out: IC50 for inhibition of the in-situ IKKε-mediated phosphorylation of IRF3
How it was run: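 Cells for the IRF7 Western blots carried IRF7 and TBK1 plasmids, were seeded at 150,000/well, exposed to compound overnight and probed for pSer477/Ser479 IRF7. The ELISA readout used IRF3 + IKKε-cotransfected HEK293T at 20,000/well with 20 h treatment, quantifying pSer396 IRF3 relative to DMSO, plus a parallel CellTiter-Glo viability check.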

IKKε = biological target: T1, IKKε (Homo sapiens, UniProt Q14164); test: In-vitro IKKε kinase assay ([γ33]ATP filter-plate); type: biochemical; conditions: text bins; read-out: IC50 for inhibition of the kinase activity of IKKε
T1 construct: His-tag; made in house; host or cells: Sf9 insect cells
T1 sequence (Q14164 1-716): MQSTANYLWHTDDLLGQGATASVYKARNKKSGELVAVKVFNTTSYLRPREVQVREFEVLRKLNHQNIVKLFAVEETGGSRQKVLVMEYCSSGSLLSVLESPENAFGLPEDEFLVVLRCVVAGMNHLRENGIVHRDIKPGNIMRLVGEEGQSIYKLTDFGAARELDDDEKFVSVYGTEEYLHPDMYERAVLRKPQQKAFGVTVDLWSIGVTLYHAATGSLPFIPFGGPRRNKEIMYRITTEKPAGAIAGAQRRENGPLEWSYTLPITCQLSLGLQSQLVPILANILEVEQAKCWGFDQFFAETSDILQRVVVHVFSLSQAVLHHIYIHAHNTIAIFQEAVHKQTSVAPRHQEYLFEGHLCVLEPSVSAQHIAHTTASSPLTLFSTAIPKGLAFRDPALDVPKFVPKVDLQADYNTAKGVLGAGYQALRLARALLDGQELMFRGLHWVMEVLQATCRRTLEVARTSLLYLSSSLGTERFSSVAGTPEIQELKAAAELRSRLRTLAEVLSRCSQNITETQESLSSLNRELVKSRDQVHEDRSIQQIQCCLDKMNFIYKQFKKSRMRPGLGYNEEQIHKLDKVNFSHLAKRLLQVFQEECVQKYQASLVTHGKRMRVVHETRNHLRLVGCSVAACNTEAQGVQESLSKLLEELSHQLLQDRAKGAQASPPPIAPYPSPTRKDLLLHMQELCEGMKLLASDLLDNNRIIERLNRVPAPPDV
How it was run: (§1)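 His-tagged IKKε and TBK1 from Sf9 cells were assayed with myelin basic protein or casein and [γ33]ATP at 2×Km ATP (32 μM for IKKε, 60 μM for TBK1). Enzyme was 0.1 or 0.015 μg/ml for IKKε and 0.1 or 0.02 μg/ml for TBK1 (normal/sensitized). Reactions ran 30-45 min, were filter-captured, scintillation-counted, and normalized to DMSO after background subtraction.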

[2] = system: RANTES secretion, RAW264.7 cells; test: RANTES secretion by RAW264.7 cells after nucleic acid agonists (ELISA); type: cell-based, Mouse; conditions: 100 nM
Source text: (§2) Mouse RAW264.7 macrophage-like cells provide a model for macrophage function in tissue culture. To investigate the efficacy of compounds according to Formula I in inhibiting nucleic acid cytosolic receptor pathways RAW264.7 cells were pretreated with a compound according to Formula I (Example Compound 471) and then exposed to various single stranded and double stranded RNA and DNA agonists introduced into the cell. To track IKKε/TBK1 signaling pathway activation, RANTES or IFN-β protein secretion was monitored by ELISA-based assays (R & D systems), such as those described above.
RAW264.7 cells were seeded in 96-well culture plates and allowed to grow overnight. The following day, media was replaced and cells were pretreated with 100 nM Example Compound 471 (0.1% final DMSO concentration). After one hour cells were transfected with Lipofectime LTX reagent (Invitrogen, Carlsbad, Calif.) and one of the following agonists: low molecular weight Poly(I:C) (InvivoGen, San Diego, Calif.) at 10 μg/ml to activate RIG-I; high molecular weight Poly(I:C) (InvivoGen, San Diego, Calif.) at 10 μg/ml to activate MDA5; Poly(dA:dT) (InvivoGen, San Diego, Calif.) at 1 ug/ml; 45-basepair double stranded interferon stimulatory DNA oligo (ISD) at 10 μg/ml (Stetson and Medzhitov; Recognition of cytosolic DNA activates an IRF3-dependent innate immune response; Immunity, 24:93-103, 2006); ssDNA at 10 μg/ml (InvivoGen, San Diego, Calif.), ssRNA at 0.5 μg/ml (InvivoGen, San Diego, Calif.), or salmon sperm genomic DNA (gDNA) (InvivoGen, San Diego, Calif.) at 10 ug/ml to activate DAI, IFI16, and other cytosolic nucleic acid receptors. RANTES (FIG. 5) and IFN-β (FIG. 6) secretion were quantified using ELISA kits (Mouse CCL5/RANTES, R&D Systems, Inc., Minneapolis, Minn. and Mouse IFN-β, Thermo Fisher Scientific, Rockford, Ill.).

TBK1 = biological target: T2, TBK1 (Homo sapiens, UniProt Q9UHD2); test: In-vitro TBK1 kinase assay ([γ33]ATP filter-plate); type: biochemical; conditions: text bins; read-out: IC50 for inhibition of the kinase activity of TBK1
T2 construct: His-tag; made in house; host or cells: Sf9 insect cells
T2 sequence (Q9UHD2 1-729): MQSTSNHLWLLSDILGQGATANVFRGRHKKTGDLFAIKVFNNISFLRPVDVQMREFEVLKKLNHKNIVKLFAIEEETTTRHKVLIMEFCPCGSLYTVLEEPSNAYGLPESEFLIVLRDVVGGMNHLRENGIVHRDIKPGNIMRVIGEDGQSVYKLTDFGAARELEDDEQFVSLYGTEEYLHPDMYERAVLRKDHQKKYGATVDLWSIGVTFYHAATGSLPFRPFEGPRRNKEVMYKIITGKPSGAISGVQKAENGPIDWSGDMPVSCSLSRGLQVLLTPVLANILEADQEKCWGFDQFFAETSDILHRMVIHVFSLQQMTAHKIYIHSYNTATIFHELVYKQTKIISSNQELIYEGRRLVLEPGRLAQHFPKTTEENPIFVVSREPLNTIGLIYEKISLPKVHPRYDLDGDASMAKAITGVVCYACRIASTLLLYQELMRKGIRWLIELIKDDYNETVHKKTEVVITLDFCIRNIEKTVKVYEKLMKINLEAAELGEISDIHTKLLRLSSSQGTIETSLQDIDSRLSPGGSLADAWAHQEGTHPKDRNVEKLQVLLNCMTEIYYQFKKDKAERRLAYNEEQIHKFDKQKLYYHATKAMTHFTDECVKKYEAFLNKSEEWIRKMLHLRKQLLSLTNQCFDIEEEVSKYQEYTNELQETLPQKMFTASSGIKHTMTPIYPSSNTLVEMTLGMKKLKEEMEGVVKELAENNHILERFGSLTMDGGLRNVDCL
How it was run: as §1

[3] = system: IFN-β secretion, RAW264.7 cells; test: IFN-β secretion by RAW264.7 cells after nucleic acid agonists (ELISA); type: cell-based, Mouse; conditions: 100 nM
Source text: as §2
RAW264.7 cells were seeded in 96-well culture plates and allowed to grow overnight. The following day, media was replaced and cells were pretreated with 100 nM Example Compound 471 (0.1% final DMSO concentration). […] RANTES (FIG. 5) and IFN-β (FIG. 6) secretion were quantified using ELISA kits (Mouse CCL5/RANTES, R&D Systems, Inc., Minneapolis, Minn. and Mouse IFN-β, Thermo Fisher Scientific, Rockford, Ill.).

IC50 [1]: < 100 nM
IC50 (IKKε): < 5 nM
IC50 (TBK1): < 10 nM
SMILES: N#Cc1cc(-c2ccnc(Nc3ccc(N4CCOCC4)cc3)n2)ccc1O[C@@H]1CCN(C(=O)CO)C1 [compound 471, 2-{[(3R)-1-(hydroxyacetyl)pyrrolidin-3-yl]oxy}-5-(2-{[4-(morpholin-4-yl)phenyl]amino}pyrimidin-4-yl)benzonitrile]
induction of RANTES secretion by DNA agonists ISD, ssDNA, poly(dA:dT), gDNA [2]: potently inhibited
induction of RANTES secretion by low and high molecular weight poly(I:C) [2]: modestly inhibited
induction of RANTES secretion by ssRNA agonist [2]: potently inhibited
induction of IFN-β secretion by DNA agonists ISD, ssDNA, poly(dA:dT), gDNA [3]: potently inhibited
induction of IFN-β secretion by low and high molecular weight poly(I:C) [3]: modestly inhibited
